Experiments:
human PBMCs = assay: 5-day MLR with Et-18-OCH3, BAPTA-AM or 8-bromo-cAMP preincubation, analogues present throughout; type: cell-based; details: 2 μM
Procedure: To determine whether the effect of inhibition of AD2900 on PBMC proliferation is dependent on the same signal transduction pathways, we next examined the capacities of the intracellular Ca^2+ chelator-BAPTA-AM, phosphatidylinositol-specific PLC inhibitor-Et-18-OCH3, and cell-permeate exogenous cAMP-8-bromo-cAMP to alter the suppressive effect of AD2900 and FTY720 on PBMC proliferation. S1P served as a positive control (Figures 2A, 2B, and 2C, respectively). PBMCs were pre-incubated for 1 hour with the inhibitors before the addition of 2 μM AD2900, FTY720, or S1P in the MLR experiment. The inhibitors and the analogues were present in the culture throughout the allogeneic activation. AD2900 suppression of PBMC proliferation was reduced from 59% ± 3% to 32% ± 7% by the exogenous cAMP. BAPTA-AM also partially reversed AD2900 suppression of PBMC proliferation from 59% ± 3% to 32% ± 3%, yet Et-18-OCH3 had no effect (Figure 2A).
Figure 2 Effect of AD2900 on proliferation is dependent on cAMP reduction and calcium signal transduction The effect of Edelfosine (Et-18-OCH3) (Et), BAPTA-AM (BAPTA), or 8-bromo-cAMP (8-b-CAMP) on the inhibition of PBMC proliferation was tested in a 5-day MLR experiment. The cells were incubated with 1 μM Edelfosine, 0.2 μM BAPTA-AM, or 5 μM 8-bromo-cAMP for 1 hour before the addition of sphingolipid analogues, 2 μM AD2900 (AD) (A), FTY720 (FTY) (B), or S1P (C). Significances are compared to AD2900/FTY/S1P without preincubation, respectively. Graphs summarize the results of at least four independent experiments. Results of Student’s t-test: *(P < 0.05, two-tailed test), ** (P < 0.01, two-tailed test).
Human PBLs were collected from human whole blood collected from healthy donors. Subsequently, the cells were centrifuged on a Ficoll-Paque gradient (Fresenius Kabi Norge AS, Oslo, Norway) and were isolated from the interphase layer. For the human MLR experiment, PBMCs from one healthy donor were pretreated for 1 day with AD2900, AD2730, AD2750, YZ297, YZ158, FTY720, or SEW2871. After 24 h, cells were washed and plated at a concentration of 5 × 10^4 cells/well in round bottom 96-well plates containing RPMI-1640 medium Supplemented with 10% human AB serum, 1% penicillin/streptomycin, and 1% l-glutamine (Beit Haemek, Israel). PBMCs from a second donor were irradiated at 3000 γ dosage and added to the plate in a 1:1 ratio with the first donor cells. The cells were cultured for 5 days. For the thymidine incorporation assay, after 4 days of co-culture, cells were pulsed with ^3H-thymidine at 1 μCi (0.037MBq) per well (PerkinElmer, MA, USA) for 16 additional hours and then harvested onto glass-fiber filters. ^3H-thymidine incorporation was measured using Top Count. NXT (PerkinElmer, UK). In other experiments, the supernatant was harvested after 5 days of co-culture for IFN-γ and TNF-α cytokine ELISA measurements (eBioscience, CA, USA). The cells were then collected for assessing apoptosis by FACS in MACSQuant analyzer (Miltenyi Biotech, Germany). In another set of experiments, the PBMCs of two donors were mixed. Sphingolipid analogues were then added to the culture and sustained through the 5 days of the MLR experiment.

C57BL/6J female mice = assay: Leukocyte counts in thymus, blood, spleen and lymph nodes after oral administration in drinking water; type: in vivo, mouse; details: 1.8 mg/l in drinking water
Procedure: Next, 7- to 8-week-old C57BL/6J female mice were orally administered with AD2900 mixed in drinking water in different dosages (1.8, 2.7, or 3.6 mg/l) for 2 days (Figure 4A) or 7 days (Figure 4B); FTY720 was used as a positive control. In the 7-day experiment, the water was replaced on Day 3 with fresh water containing the same concentration of analog. At the end of the experiment, blood, spleen, inguinal lymph nodes, and thymus were obtained from each animal and the number of leukocytes was evaluated.
Figure 4 AD2900 treatment alters the distribution of leukocytes in the thymus, blood, spleen, and peripheral lymph nodes in mice C57BL/6 female mice were orally administered with 1.8 mg/l AD2900 in their drinking water for 2 days (A) or 7 days (B), and FTY720 (1.8 mg/l) was used as a positive control. Leukocytes from the thymus, blood, spleen, and peripheral lymph nodes (pLNs) were collected and counted. All the significances are compared to untreated healthy mice. Results summarize four independent experiments in figure (A) and two independent experiments in figure (B). n = 4–7 mice per group in each experiment. Results of Student’s t-test:*(P < 0.05, two-tailed test), ** (P < 0.01, two-tailed test), *** (P < 0.001, two-tailed test), **** (P < 0.0001, two-tailed test).
C57BL/6 female mice aged 7–8 weeks were obtained from Harlan Laboratories (Jerusalem, Israel). The animal study was conducted under appropriate conditions and was approved by the Institutional Animal Care and Use Committee of the Hebrew University of Jerusalem in accordance with the national laws and regulations for the protection of animals. AD2900 was dissolved in 10% BSA (MP Biomedicals, CA, USA) in DDW at 1 mg/ml and then further diluted in 200 ml water to get final concentrations at 1.8, 2.7, or 3.6 mg/l. AD2900 and FTY720 were supplied ad libitum to the mice for 2 days or 7 days. At the end of the experiment, blood was collected, and the mice were sacrificed and tissues (lymph nodes and spleen) were harvested.
Murine blood samples, collected in tubes coated with EDTA (Grelner bio-one, Germany), were counted by a Mindray veterinary hematology Analyzer (Mindray, China). Single cell suspensions of lymph nodes and spleen were made in 1.5 ml of PBS. Cell counts were determined from these suspensions, yielding results in thousands of cells per microliter (μl).

SMILES	effect of Et-18-OCH3, BAPTA-AM and 8-bromo-cAMP on suppression of PBMC proliferation (human PBMCs; 1 hour preincubation with the inhibitors)	lymph node leukocyte count (C57BL/6J female mice; 2-day and 7-day treatments)	WBC and splenocyte counts (C57BL/6J female mice; both 2-day and 7-day treatments)	suppression of PBMC proliferation (human PBMCs; present throughout MLR, without preincubation)	suppression of PBMC proliferation with BAPTA-AM (human PBMCs; 1 hour preincubation with 0.2 μM BAPTA-AM)	effect of Et-18-OCH3 on suppression of PBMC proliferation (human PBMCs; 1 hour preincubation with 1 μM Et-18-OCH3)	suppression of PBMC proliferation with exogenous cAMP (human PBMCs; 1 hour preincubation with 5 μM 8-bromo-cAMP)	increase of splenocyte counts (C57BL/6J female mice; 2-day treatment)	increase of thymus WBC count (C57BL/6J female mice; 2-day treatment)	increase of mice WBC count (C57BL/6J female mice; 7-day treatment)	increase of splenocyte counts (C57BL/6J female mice; 7-day treatment)	reduction of the number of leukocytes in the lymph nodes, of that of the control (C57BL/6J female mice; 7-day treatment)
CCCCCCCCc1ccc(CCC(N)(CO)CO)cc1 [FTY720, Fingolimod, reference compound]	not nullified by any of these interventions	only minor effects	dramatically reduced									
CCCCCCCCCCCCCCCCNC(CO)(CO)CO [AD2900]				59% ± 3%	32% ± 3%	no effect	32% ± 7%	33% ± 9%	25% ± 8.2%	23% ± 7%	20% ± 7%	18% ± 4%
